Molecules are shown by their SMILES. Like-named read-outs stand apart in the source and are kept apart here.

The EC50 is the concentration giving half of the maximal effect. What is called IC50 is the concentration needed to halve the response being measured.

Data set [1] concerns SARS-CoV-2-GHB-03021/2020. Put plainly: SARS-CoV-2 Infection Model in Huh7 Cells. The class given is cell-based. Particulars: Severe acute respiratory syndrome coronavirus 2, Huh-7, 96 h, SARS-CoV-2, day 4 p.i., MTS.
Data set [2] can be described thus: Cytotoxicity plates without OC43 virus (cell-titer-glo). In kind it is cell-based, human. Particulars: human; HeLa cells without OC43 virus, class symbols. In short, it runs like this: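 HeLa cells seeded overnight, then treated with serially diluted compounds in 2% FBS EMEM, uninfected, in parallel with the OC43 antiviral plates. Incubated 6 days at 33 °C; viability read by CellTiter-Glo luminescence.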

Data set [3] is described as follows: in vitro. The note with it: African green monkey, VeroE6 + CP (CC50), Vero E6-eGFP cells with CP-100356, absence of virus, MTS.
The subject of data set [4] is human beta-coronavirus OC43. Nature of the data set: microbe, parasite or virus in culture. Particulars: Betacoronavirus 1, OC43, HeLa, 144 h. The class given is cell-based.
Data set [5] is described as follows: in vitro. Particulars: human.
The target of another data set is HRV3C (Human rhinovirus 14, UniProt P03303). Nature of the data set: HRV3C protease assay (duplex, SAMDI-MS). The class given is biochemical, HRV. Particulars: 30 mins preincubation. The essentials:
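Duplex format with 3CLpro; 30 min enzyme–compound preincubation, 30 min reaction with two peptide substrates, ambient temp. Stop: 0.5% formic acid, neutralized with 1% NaHCO3 (finals). Readout SAMDI-MS, product AUC over internal standard AUC; four-parameter IC50.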

Data set [6] deals with SARS-CoV-2-GHB-03021/2020. Put plainly: microbe, parasite or virus in culture. The note with it: Severe acute respiratory syndrome coronavirus 2, Vero C1008, 96 h; read-out: VeroE6 + CP (EC50). In kind it is cell-based.
For a further data set, the target named is 3CLpro (Severe acute respiratory syndrome coronavirus 2, UniProt P0DTD1). Nature of the data set: SARS-CoV-2 3CLpro protease assay (duplex, SAMDI-MS). Particulars: 3CLpro, 30 mins preincubation, read-out: SARS-Cov-2 IC50. Also on record: For the duplex assay, 3CLpro and HRV3C was added. In kind it is biochemical.
For a further data set, the target named is T1, human cathepsin L (Homo sapiens, UniProt P07711).
T1 construct: purchased R&D Systems
Nature of the data set: cathepsin L assay. The class given is biochemical. The note with it: 10 pM human cathepsin L, Z-FR-AMC 2 μM, class symbols. The essentials: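 Human cathepsin L at 10 pM was preincubated 30 min with compound, then reaction started with Z-FR-AMC (2 μM final). Fluorescence (355/460 nm) read every 2 min for 30 min; IC50 from four-parameter curve fit.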

Where [7] appears, read: OC43 in HeLa cells, 6 days at 33° C., class symbols, read-out: EC50.
Where [8] appears, read: HRV3C, class symbols, read-out: HRV IC50.
Setting [9] is: HRV3C, bound, read-out: HRV IC50.

As to `O=C(NC1CC1)C(=O)[C@H](C[C@@H]1CCNC1=O)NC(=O)[C@@H]1CC2(CCN1C(=O)c1cc3cc(F)ccc3[nH]1)CC2` [Compound 147], the values for the EC50 in data set [1] (class symbols), in [4] (setting [7]) and in [6] were 10 to 100 µM, 0.1 to 1 µM and 10 to 100 µM, respectively. Also, the CC50 at 6 days in data set [2] was more than 10 µM. Further, the CC50 in “in vitro [3]” (numeric bounds) and in the data set “in vitro [5]” was more than 50 µM each time. In addition, the IC50 on HRV3C (setting [8]) was 2 to 20 µM; on 3CLpro (class symbols), less than 0.02 µM; against human cathepsin L it was not below 10 µM.
For `O=C1NCC[C@H]1C[C@H](NC(=O)[C@@H]1[C@H]2CCC[C@H]2CN1C(=O)c1cc2c(Cl)cc(Cl)c(F)c2[nH]1)C(=O)CO` [Compound 160, (1S,3aR,6aS)-2-(4,6-dichloro-7-fluoro-1H-indole-2-carbonyl)-N—((S)-4-hydroxy-3-oxo-1-((S)-2-oxopyrrolidin-3-yl)butan-2-yl)octahydrocyclopenta[c]pyrrole-1-carboxamide], the EC50 in data set [1] (class symbols) was less than 1 µM; in [4] (setting [7]), 0.1 to 1 µM; in data set [6], less than 1 µM. The CC50 at 6 days in data set [2] is more than 10 µM. Further, the results for the CC50 in the data set “in vitro [3]” (numeric bounds) and in “in vitro [5]” were more than 50 µM and more than 10 µM, respectively. In addition, the IC50 on HRV3C (setting [9]) was more than 10 µM; at 3CLpro (class symbols) it was less than 0.02 µM; on human cathepsin L it was not below 10 µM.
As for `O=C1NCC[C@H]1C[C@H](NC(=O)[C@@H]1[C@H]2CCC[C@H]2CN1C(=O)c1cc2c(Cl)cc(Oc3ccccc3)cc2[nH]1)C(=O)CO` [Compound 129, (1S,3aR,6aS)-2-(4-chloro-6-phenoxy-1H-indole-2-carbonyl)-N-[(2S)-4-hydroxy-3-oxo-1-[(3S)-2-oxopyrrolidin-3-yl]butan-2-yl]-hexahydro-1H-cyclopenta[c]pyrrole-1-carboxamide], the results for the EC50 in data set [1] (class symbols), in data set [4] (setting [7]) and in data set [6] were less than 1 µM, less than 0.1 µM and less than 1 µM, respectively. In data set [2], this molecule displayed a CC50 at 6 days of more than 10 µM. The CC50 in “in vitro [3]” (class symbols) and in “in vitro [5]” was more than 10 µM throughout. Also, the IC50 on HRV3C (setting [9]) was more than 10 µM; at 3CLpro (class symbols), less than 0.02 µM; at human cathepsin L, not below 10 µM.
For `O=C1NCC[C@H]1C[C@H](NC(=O)[C@@H]1[C@H]2CCC[C@H]2CN1C(=O)c1cc2c(Cl)c(F)cc(Cl)c2[nH]1)C(=O)CO` [Compound 122, (1S,3aR,6aS)-2-(4,7-dichloro-5-fluoro-1H-indole-2-carbonyl)-N-[(2S)-4-hydroxy-3-oxo-1-[(3S)-2-oxopyrrolidin-3-yl]butan-2-yl]-hexahydro-1H-cyclopenta[c]pyrrole-1-carboxamide], the figures for the EC50 in data set [1] (class symbols), in data set [4] (setting [7]) and in data set [6] were less than 1 µM, less than 0.1 µM and less than 1 µM, respectively. The molecule also displayed a CC50 at 6 days in data set [2] of more than 10 µM. The CC50 in “in vitro [3]” (numeric bounds) and in the data set “in vitro [5]” was more than 50 µM throughout. For the same molecule, the IC50 at HRV3C (setting [9]) is more than 10 µM; on 3CLpro (class symbols) it was 0.02 to 0.2 µM; on human cathepsin L, not below 10 µM.
Regarding `O=C(NCc1ccccc1)C(=O)[C@H](Cc1cccnc1)NC(=O)[C@@H]1CC2(CC2)CN1C(=O)c1cc2ccccc2[nH]1` [Compound 111, (S)—N—((S)-4-(benzylamino)-3,4-dioxo-1-(pyridin-3-yl)butan-2-yl)-5-(1H-indole-2-carbonyl)-5-azaspiro[2.4]heptane-6-carboxamide], the EC50 in data set [1] (class symbols) was 1 to 10 µM; in [4] (setting [7]), 10 to 100 µM; in data set [6], more than 100 µM. The CC50 at 6 days in data set [2] is more than 10 µM. For the same molecule, the results for the CC50 in “in vitro [3]” (numeric bounds) and in “in vitro [5]” were more than 100 µM and more than 10 µM, respectively. Also, the IC50 is more than 10 µM at HRV3C (setting [9]), more than 10 µM on 3CLpro (bound) and less than 0.1 µM against human cathepsin L.
Consider `COc1cc(Cl)c(Cl)c2[nH]c(C(=O)N3C[C@@H]4CCC[C@@H]4[C@H]3C(=O)N[C@@H](C[C@@H]3CCNC3=O)C(=O)CO)cc12` [Compound 158, (1S,3aR,6aS)-2-(6,7-dichloro-4-methoxy-1H-indole-2-carbonyl)-N-[(2S)-4-hydroxy-3-oxo-1-[(3S)-2-oxopyrrolidin-3-yl]butan-2-yl]-hexahydro-1H-cyclopenta[c]pyrrole-1-carboxamide], for which the EC50 in [1] (class symbols) was less than 1 µM; in data set [4] (setting [7]), 0.1 to 1 µM; in data set [6], less than 1 µM. Moreover, in [2], the CC50 at 6 days is more than 10 µM. Besides, the CC50 is more than 50 µM in “in vitro [3]” (numeric bounds) and more than 10 µM in the data set “in vitro [5]”. For the same molecule, the IC50 at HRV3C (setting [8]) was 2 to 20 µM; at 3CLpro (class symbols) it was less than 0.02 µM; against human cathepsin L it was not below 10 µM.
For `COc1cccc2[nH]c(C(=O)N3C[C@@H]4CCC[C@@H]4[C@H]3C(=O)N[C@@H](C[C@@H]3CCNC3=O)C(=O)C(=O)NCCO)cc12` [Compound 107, (1S, 3aR, 6aS)—N—((S)-4-((2-hydroxyethyl)amino)-3,4-dioxo-1-((S)-2-oxopyrrolidin-3-yl)butan-2-yl)-2-(4-methoxy-1H-indole-2-carbonyl)octahydrocyclopenta[c]pyrrole-1-carboxamide], the EC50 was 10 to 100 µM in data set [1] (class symbols); more than 10 µM in [4] (OC43 in HeLa cells, 6 days at 33° C., bound, read-out: EC50); 10 to 100 µM in data set [6]. This molecule also returned a CC50 at 6 days in [2] of more than 10 µM. In addition, the CC50 in “in vitro [3]” (numeric bounds) was more than 100 µM; in “in vitro [5]”, more than 50 µM. For the same molecule, the IC50 is 0.2 to 2 µM at HRV3C (setting [8]), less than 0.02 µM at 3CLpro (class symbols) and not below 10 µM against human cathepsin L.
In the case of `O=C1NCC[C@H]1C[C@H](NC(=O)[C@@H]1[C@H]2CCC[C@H]2CN1C(=O)c1cc2c(Cl)c(F)cc(F)c2[nH]1)C(=O)CO` [Compound 143, (1S,3aR,6aS)-2-(4-chloro-5,7-difluoro-1H-indole-2-carbonyl)-N-[(2S)-4-hydroxy-3-oxo-1-[(3S)-2-oxopyrrolidin-3-yl]butan-2-yl]-hexahydro-1H-cyclopenta[c]pyrrole-1-carboxamide], the EC50 in data set [1] (class symbols) was less than 1 µM; in data set [4], 0.1 to 1 µM; in data set [6] it was less than 1 µM. This molecule had a CC50 at 6 days in data set [2] of more than 10 µM. The CC50 in “in vitro [3]” (numeric bounds) is more than 50 µM; in the data set “in vitro [5]” it was more than 10 µM. For the same molecule, the IC50 against HRV3C (HRV IC50, HRV3C, bound) was more than 10 µM; on 3CLpro (class symbols), 0.02 to 0.2 µM; at human cathepsin L, not below 10 µM.
`COc1cccc2[nH]c(C(=O)N3C[C@@H]4CCC[C@@H]4[C@H]3C(=O)NC(C[C@@H]3CCNC3=O)C(=O)C(=O)NCc3ccccc3)cc12` (stereo partly drawn) [Compound 16, 3-[[(1S,3aR,6aS)-2-(4-methoxy-1H-indole-2-carbonyl)-hexahydro-1H-cyclopenta[c]pyrrol-1-yl]formamido]-N-benzyl-2-oxo-4-[(3S)-2-oxopyrrolidin-3-yl]butanamide]: the values for the EC50 in [1] (class symbols), in data set [4] (setting [7]) and in data set [6] were 1 to 10 µM, 0.1 to 1 µM and 1 to 10 µM, respectively. In data set [2], this molecule showed a CC50 at 6 days of more than 10 µM. Also, the CC50 in “in vitro [3]” (class symbols) and in “in vitro [5]” was more than 10 µM each time. For the same molecule, the results for the IC50 on HRV3C (setting [8]), on 3CLpro (class symbols) and at human cathepsin L were 0.2 to 2 µM, 0.02 to 0.2 µM and not below 10 µM, respectively.
Regarding `O=C(NCc1ccccc1)C(=O)C(C[C@@H]1CCNC1=O)NC(=O)[C@@H]1C[C@@H](c2ccccc2)CN1C(=O)c1cc2ccccc2[nH]1` (stereo partly drawn) [Compound 7], the EC50 was 1 to 10 µM in data set [1] (class symbols), 0.1 to 1 µM in [4] (setting [7]) and 1 to 10 µM in data set [6]. This molecule came in with a CC50 at 6 days in data set [2] of more than 10 µM. For the same molecule, the CC50 in “in vitro [3]” (class symbols) and in the data set “in vitro [5]” was more than 10 µM in each case. The IC50 at HRV3C (setting [8]) is 0.2 to 2 µM; on 3CLpro (class symbols) it was 0.2 to 2 µM; against human cathepsin L it was less than 0.1 µM.
With `COc1cccc2[nH]c(C(=O)N3C[C@H]4[C@@H]([C@H]3C(=O)N[C@@H](C[C@@H]3CCNC3=O)C(=O)C(N)=O)C4(C)C)cc12` [Compound 51, (3S)-3-{[(1R,2S,5S)-3-(4-methoxy-1H-indole-2-carbonyl)-6,6-dimethyl-3-azabicyclo[3.1.0]hexan-2-yl]formamido}-2-oxo-4-[(3S)-2-oxopyrrolidin-3-yl]butanamide], the figures for the EC50 in [1] (numeric bounds), in [4] (setting [7]) and in data set [6] were more than 100 µM, 1 to 10 µM and more than 100 µM, respectively. In data set [2], this molecule showed a CC50 at 6 days of more than 10 µM. In addition, the CC50 in “in vitro [3]” (numeric bounds) and in “in vitro [5]” was more than 100 µM throughout. Besides, the IC50 is 0.2 to 2 µM at HRV3C (setting [8]), less than 0.02 µM at 3CLpro (class symbols) and 0.1 to 1 µM on human cathepsin L.

For the origin of these results see patent US11952365B2, “Anti-viral compounds” (Aligos Therapeutics, Inc., priority 2020, dated 2024).
